# Entries after “also recorded” stand apart in the source; their conditions may differ.
# Legend:
# [1] = system: P. aeruginosa; conditions: in vivo-like models of lung infection; cited from earlier work
# Excerpt: The global issue of anti-microbial resistance coupled with the lack of new treatments for bacterial infections has stimulated interest in the use of AMPs for therapeutic purposes. Due to their unique mechanism(s) of action and wide spectrum of biological activities, AMPs are emerging as a promising alternative to conventional anti-microbial agents for the management of antibiotic-resistant and biofilm-associated infections. Although mainly intended for topical use due to potential toxicity and reduced stability under physiological conditions, many different peptides with anti-micro ...
# [2] = system: THP-1 macrophages; assay: LPS-induced cytokine production by THP-1 macrophages; format: cell-based, Human; conditions: P. aeruginosa LPS 10 ng/mL, 4 h, 37 °C, 5% CO2
# Protocol: (§1) Human non-small-cell lung adenocarcinoma A549 cells (ATCC CCL-185; LGC Standards, Milan, Italy) and human monocytic THP-1 cells (ATCC TIB-202; LGC Standards) were cultured in tissue culture flasks in Dulbecco’s modified essential medium (DMEM) (Euroclone, Milan, Italy) and RPMI 1640 medium (Euroclone), respectively. Both media were supplemented with 2 mM L-glutamine (Euroclone) and 10% heat-inactivated fetal bovine serum (FBS; Euroclone). Confluent monolayers were detached from the culture flask with 0.25% trypsin/1 mM EDTA solution (Euroclone), suspended in complete culture medium and seeded into flat-bottom 96-well plates at a final density of 1 × 10^4 cells/well (A549) and 2 × 10^4 cells/well (THP-1). A549 cells were cultured for 24 h at 37 °C, 5% CO2 in order to allow adhesion and formation of semi-confluent monolayers. THP-1 cells were cultured for 3 days (37 °C, 5% CO2) in the presence of 100 nM TPA (Sigma-Aldrich, St. Louis, MO, USA) to induce their differentiation into macrophage-like cells.
# The anti-inflammatory potential of lin-SB056-1 and (lin-SB056-1)2-K was assessed by evaluating their ability to reduce LPS-induced production of pro-inflammatory cytokines by A549 cells and THP-1 macrophages. […] Following incubation, cell culture supernatants were collected, filter sterilized (0.22 µm) and employed for the quantification of cytokines and the assessment of cell viability.
# Different pro-inflammatory cytokines (i.e., IL-1β, IL-6, IL-8 and TNF-α) were quantified in cell culture supernatants through a bead-based multiplex immunoassay (LEGENDplex multi-analyte flow assay kit; BioLegend, San Diego, CA, USA) following manufacturer’s instructions. […] Following consecutive washing steps, the beads were resuspended in the LEGENDplex wash buffer and the samples were analyzed by flow cytometry (BD Accuri C6 flow cytometer; BD Biosciences, Mountain View, CA, United States). Data were acquired with the BD Accuri C6 software (BD Biosciences) (300 events per analyte) and analyzed with the LEGENDplex software (BioLegend). […]
# [3] = LAL assay, LPS neutralization; format: biochemical, Escherichia coli; conditions: E. coli 011:B4 LPS 2 EU/mL, 37 °C
# Protocol: The ability of lin-SB056-1 and (lin-SB056-1)2-K to neutralize the activity of LPS was analyzed using a standardized LAL assay (Pierce LAL chromogenic endotoxin quantitation kit; Thermo Fisher Scientific). Peptides at different concentrations (2.4 to 19.25 μM) were pre-incubated with E. coli 011:B4 LPS (2 Endotoxin Units (EU)/mL; EU = unit of measurement for endotoxin activity) for 30 min (37 °C, shaking) in order to promote the interaction between the two molecules. LPS alone was used as positive control. Following incubation, peptide-treated and untreated samples were mixed with the LAL reagent (1:1 ratio) and incubated for 10 min at 37 °C. Subsequently, 100 μL of the chromogenic substrate were added and incubated with the samples for 6 min. The reaction was terminated by adding 100 μL of acetic acid (25% v/v), and absorbance was measured at 405 nm ([…]) using a microplate reader (Multiscan FC, Life Technologies Italia, Monza, Italy). The amount of peptide-sequestered LPS was determined as follows: LPS neutralization (%) = [100 − (ODpeptide/ODpositive control × 100)].
# [4] = system: THP-1 macrophages; assay: Cytotoxicity (LDH release) towards THP-1 macrophages; format: cell-based, Human; conditions: 4 h
# Protocol: as §1
# The cytotoxicity of lin-SB056-1 and (lin-SB056-1)2-K towards A549 and THP-1 cells was evaluated to exclude a possible correlation between reduction in cytokine levels and decrease in cell numbers. To this end, culture supernatants of cells stimulated with LPS in the presence of the peptides were employed to quantify the amount of cytoplasmic LDH released by dead cells. Cells incubated in culture medium alone or in the presence of LPS served as an indication of spontaneous cell death (cell viability controls), while cells treated with a commercial lysis buffer (Pierce LDH cytotoxicity assay kit, Thermo Fisher Scientific) were used as cell death control (100% cell lysis). The enzymatic activity of LDH in cell supernatants was measured using the Pierce LDH cytotoxicity assay kit (Thermo Fisher Scientific) following manufacturer’s instructions. The cytotoxic effect was determined as follows: cytotoxicity (%) = [(LDH activity of A/LDH activity of B) × 100], where A represents peptide-treated or untreated cells (both in the presence and absence of LPS), and B corresponds to the cell lysis control.
# [5] = 9.6 μM peptide, vs LPS-stimulated peptide-untreated control, statistically significant, mean of three independent experiments
substance,measurement,setting,value
"[KWKIRVRLSA]2-K [(lin-SB056-1)2-K, dendrimeric derivative of lin-SB056-1]",anti-bacterial and anti-biofilm activity in in vivo-like models,[1],remarkable anti-bacterial and anti-biofilm activity
same,reduction in secretion of IL-1β,[2]; [5],80%
same,reduction in secretion of IL-6,[2]; [5],60%
same,effect on TNF-α levels,[2]; three independent experiments,"a trend in decreasing TNF-α levels, no statistical significance was reached"
same,LPS neutralization,"[3]; 19.25 μM peptide, pre-incubation 30 min, shaking, LAL reagent 10 min, chromogenic substrate 6 min, absorbance 405 nm (OD450), vs peptide-untreated control, mean of three independent experiments",~100%
same,LPS neutralization / LAL activity,"[3]; 2.4 to 19.25 μM peptide, 30 min",higher LPS-binding ability than lin-SB056-1; also recorded: reduction of LAL activity
same,"cell death (LDH release), with LPS","[4]; LPS-stimulated THP-1 macrophages, up to 19.25 μM (highest tested), 37 °C, 5% CO2, relative to cell lysis control, at least three independent experiments",less than 5%
same,toxicity,"[4]; LPS-stimulated THP-1 macrophages, up to 19.25 μM, LDH release",no detectable toxicity
same,"cell death (LDH release), co-cultured with peptide and LPS","[4]; THP-1 macrophages, 19.25 μM peptide with LPS, 37 °C, 5% CO2, mean of at least three independent experiments",5%
same,"cell death (LDH release), in the absence of LPS","[4]; THP-1 macrophages, 19.25 μM peptide, no LPS, 37 °C, 5% CO2, mean of at least three independent experiments",14%
